Publication PMC6668441, “Comparative Study of Subcutaneous and Orthotopic Mouse Models of Prostate Cancer: Vascular Perfusion, Vasculature Density, Hypoxic Burden and BB2r-Targeting Efficacy” (Scientific Reports, 2019)

Columns and labels:
[1] = molecular target: T1, BB2r (gastrin-releasing peptide receptor) (Homo sapiens, UniProt P30550); assay: In vitro competitive cell-binding, displacement of [125I-Tyr4]-Bombesin on PC-3 cells; conditions: PC-3 cells (~3×10^4), 4 °C, 40 min, RPMI 1640 pH 7.4, mean ± SEM (n = 6)
T1 construct: host or cells: PC-3 human prostate cancer cells (whole cells in suspension)
Experimental: Data were presented as Mean ± SD/SEM as noted. […] In vitro stability studies of the radioconjugate in various buffers were analyzed by the two-tailed Student’s t-test. For comparison between the two models, analysis of the biodistribution studies, hypoxic burden and blood vessel density of tumor was carried out by a two-tailed Student’s t-test. Comparisons of the means of the BB2r-uptake, blood perfusion, hypoxic burden and blood vessel density of the tumors among the three tumor volume groups for each animal model were analyzed by one-way ANOVA. If the overall p-value was statistically significant, pairwise comparisons were adjusted using Tukey’s method. A p-value < 0.05 was considered statistically significant.
In Vitro Competitive Cell-Binding Studies […]
binding assays using PC-3 cells.
(§1) Establishment of Stably Transfected PC-3-Luc Cells
(firefly)-2A-GFP (Puro), AMSBIO) for transfection.
The medium was removed and replaced with 0.5 […]
and swirled to mix. […] Once the cells grew to confluence, they […]
1.5 mL of suspended cells in PBS at […]
to culture for in vitro and in vivo studies.
Cells were incubated at 37 °C
Development of PC-3 Xenograft SCID Mice
The tumor size was monitored during the growth by caliper measurement.
Development of PC-3 Orthotopic SCID mice […]
clips. […] The animals were monitored continuously for the following weeks. […]

[2] = tested on: orthotopic PC-3 xenografts; assay: Biodistribution, perfusion tracer, orthotopic PC-3 xenograft model; assay type: in vivo; conditions: for blood uptake / bone uptake / brain uptake / excretion (urine and fecal material) / heart uptake / kidney uptake / large intestine uptake / liver uptake / lung uptake / muscle uptake / pancreas uptake / small intestine uptake / spleen uptake / stomach uptake / tumor uptake (perfusion): orthotopic model, 10 µCi i.v., 5 min p.i., mean ± SD
Experimental: (§2) For the subcutaneous model, 5-week old female SCID mice were inoculated in the flanks with 5 × 10^6 PC-3 cells (American Type Culture Collection (ATCC), VA) in Matrigel®. The tumor size was monitored by caliper. For the generation of the orthotopic model, the PC-3-Luc cells were selected by 0.5 µg/mL puromycin twice before inoculation. The male 6-weeks SCID mice were anesthetized, the muscles of the abdomen area were cut after retracting the skin, and the prostate gland exposed. 50 μL of PC-3-Luc cell suspension at 0.5 × 10^6/mL in Matrigel® was injected into a dorsal prostatic lobe. The wound was closed in two layers and the skin was clipped. Animals were given analgesic drugs for 3 days and the tumors were monitored by an IVIS optical imaging system.
(§3) The mice were injected, monitored and dissected in the lab with the temperature of 23 °C and 17% relative humidity. All animals were awake until sacrifice. The body weight, tumor volume and tumor luminescence of the mice were recorded every three days. At four-to-seven weeks post-xenograft implantation, the mice were divided into three groups by tumor volume: <300, 300–700 and >700 mm^3 in both animal models. […] Each mouse (average weight: 20 g for female mice and 25 g for male mice) was treated with pimonidazole solution (80 mg/kg in PBS) via intraperitoneal injection. […] After an additional 1 h, the mice were injected intravenously with a PBS solution containing 10 µCi (370 kBq) of [^99mTc]NaTcO4 and 15 mg/kg Hoechst 33342. The animals were sacrificed 5 minutes later, and their tissues collected. The excised tissues were weighed, the radioactivity for each tissue was measured by γ-counter and the percentage injected dose per gram (%ID/g) was calculated for each tissue. […]
as §1
To generate the PC-3-Luc cells, we utilized pre-made lentivirus particles encoding luciferase and GFP (EF1a-Luciferase (firefly)-2A-GFP (Puro), AMSBIO) for transfection. Briefly, normal PC-3 cells were seeded in a 24-well plate using 0.5 mL of medium containing 0.5 × 10^5 cells/mL and incubated overnight. The medium was removed and replaced with 0.5 mL of fresh medium pre-mixed with 2.5 ȝL TransduxTM. To each well was added 2 ȝL of the lentivirus particle solution and swirled to mix. The plate was returned to the incubator and cultured for 3 days. Once the cells grew to confluence, they were harvested and transferred to larger plates (from 6-well plates to 60 mm dishes). 1.5 mL of suspended cells in PBS at a concentration of 5 × 10^6/mL was sorted by the FACS method to give the GFP positive (PC-3-Luc) cells that were returned to culture for in vitro and in vivo studies.
The normal PC-3 cells and PC-3-Luc were cultured in our laboratory, as per ATCC protocols, in Ham’s F-12K medium containing 10% FBS, 2.5 mM L-glutamine, 15 mM HEPES and 0.5 mM sodium pyruvate. Cells were incubated at 37 °C […]
(§4) All animal experiments were performed in accordance with the NIH animal use guideline and protocol approved by the […]

[3] = tested on: subcutaneous PC-3 xenografts; assay: Biodistribution, perfusion tracer, subcutaneous PC-3 xenograft model; assay type: in vivo; conditions: 5 min p.i., mean ± SD
Experimental: as §2, §3
The normal PC-3 cells and PC-3-Luc were cultured in our laboratory, as per ATCC protocols, in Ham’s F-12K medium
containing 10% FBS, 2.5 mM L-glutamine, 15 mM HEPES and 0.5 mM sodium pyruvate. Cells were incubated at 37 °C
as §4

[4] = tumor volume 300-700 mm^3, 10 µCi i.v.
[5] = tumor volume <300 mm^3, 10 µCi i.v.
[6] = tumor volume >700 mm^3, 10 µCi i.v.

T1 sequence (P30550 whole entry): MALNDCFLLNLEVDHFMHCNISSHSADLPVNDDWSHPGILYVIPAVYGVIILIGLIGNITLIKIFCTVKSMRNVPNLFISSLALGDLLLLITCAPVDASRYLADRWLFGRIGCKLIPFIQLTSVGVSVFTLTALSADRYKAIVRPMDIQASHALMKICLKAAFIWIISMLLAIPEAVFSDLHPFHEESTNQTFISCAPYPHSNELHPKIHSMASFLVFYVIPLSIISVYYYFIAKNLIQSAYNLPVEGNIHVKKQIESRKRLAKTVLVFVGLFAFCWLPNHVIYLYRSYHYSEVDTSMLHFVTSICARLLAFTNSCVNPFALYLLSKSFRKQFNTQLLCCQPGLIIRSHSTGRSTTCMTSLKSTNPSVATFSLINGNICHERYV

SMILES: CSCC[C@H](NC(=O)[C@H](CC(C)C)NC(=O)[C@H](Cc1c[nH]cn1)NC(=O)CNC(=O)[C@@H](NC(=O)[C@H](C)NC(=O)[C@H](Cc1c[nH]c2ccccc12)NC(=O)[C@H](CCC(N)=O)NC(=O)CCOCCOCCOCCOCCNC(=O)[C@@H](CO)NC(=O)[C@@H](CO)NC(=O)[C@@H](CO)NC(=O)[C@@H](CO)NC(=O)[C@@H](CO)NC(=O)CN1CCN(CC(=O)O)CCN(CC(=O)O)CCN(CC(=O)O)CC1)C(C)C)C(N)=O [DOTA-SP714, DOTA-(D)S-(D)S-(D)S-(D)S-(D)S-PEG3–BBN(7–14)NH2]
- IC50 [1]: 9.8 ± 1.7 nM

SMILES: [Na+].[O]=[Tc](=[O])(=[O])[O-] [[^99mTc]TcO4^−, sodium pertechnetate]
- stomach uptake, orthotopic versus subcutaneous model ([2]; Table S1): approximately 8 fold
- tumor perfusion, orthotopic versus subcutaneous model ([2]; across tumor volume groups): 3.7–4.3 fold
- blood uptake ([2]; tumor volume 300-700 mm^3): 3.51 ± 1.28 %ID/g
- bone uptake ([2]; tumor volume 300-700 mm^3): 1.27 ± 0.68 %ID/g
- brain uptake ([2]; tumor volume 300-700 mm^3): 0.18 ± 0.18 %ID/g
- excretion (urine and fecal material) ([2]; tumor volume 300-700 mm^3): 37.55 ± 14.08 %ID
- heart uptake ([2]; tumor volume 300-700 mm^3): 1.20 ± 0.63 %ID/g
- kidney uptake ([2]; tumor volume 300-700 mm^3): 2.25 ± 2.25 %ID/g
- large intestine uptake ([2]; tumor volume 300-700 mm^3): 2.24 ± 0.57 %ID/g
- liver uptake ([2]; tumor volume 300-700 mm^3): 2.92 ± 0.95 %ID/g
- lung uptake ([2]; tumor volume 300-700 mm^3): 2.78 ± 1.27 %ID/g
- muscle uptake ([2]; tumor volume 300-700 mm^3): 0.59 ± 0.18 %ID/g
- pancreas uptake ([2]; tumor volume 300-700 mm^3): 5.17 ± 5.32 %ID/g
- small intestine uptake ([2]; tumor volume 300-700 mm^3): 1.36 ± 0.45 %ID/g
- spleen uptake ([2]; tumor volume 300-700 mm^3): 1.70 ± 1.20 %ID/g
- stomach uptake ([2]; tumor volume 300-700 mm^3): 19.15 ± 6.40 %ID/g
- tumor uptake (perfusion) ([2]; tumor volume 300-700 mm^3): 2.94 ± 0.76 %ID/g
- blood uptake ([2]; tumor volume <300 mm^3): 3.13 ± 1.02 %ID/g
- bone uptake ([2]; tumor volume <300 mm^3): 1.10 ± 0.73 %ID/g
- brain uptake ([2]; tumor volume <300 mm^3): 0.14 ± 0.04 %ID/g
- excretion (urine and fecal material) ([2]; tumor volume <300 mm^3): 39.51 ± 22.40 %ID
- heart uptake ([2]; tumor volume <300 mm^3): 1.29 ± 0.61 %ID/g
- kidney uptake ([2]; tumor volume <300 mm^3): 1.85 ± 0.91 %ID/g
- large intestine uptake ([2]; tumor volume <300 mm^3): 1.52 ± 0.36 %ID/g
- liver uptake ([2]; tumor volume <300 mm^3): 2.51 ± 0.73 %ID/g
- lung uptake ([2]; tumor volume <300 mm^3): 2.86 ± 1.06 %ID/g
- muscle uptake ([2]; tumor volume <300 mm^3): 0.47 ± 0.20 %ID/g
- pancreas uptake ([2]; tumor volume <300 mm^3): 4.94 ± 4.84 %ID/g
- small intestine uptake ([2]; tumor volume <300 mm^3): 1.31 ± 0.31 %ID/g
- spleen uptake ([2]; tumor volume <300 mm^3): 2.84 ± 1.87 %ID/g
- stomach uptake ([2]; tumor volume <300 mm^3): 16.33 ± 4.08 %ID/g
- tumor uptake (perfusion) ([2]; tumor volume <300 mm^3): 2.23 ± 1.09 %ID/g
- blood uptake ([2]; tumor volume >700 mm^3): 3.96 ± 0.90 %ID/g
- bone uptake ([2]; tumor volume >700 mm^3): 0.85 ± 0.49 %ID/g
- brain uptake ([2]; tumor volume >700 mm^3): 0.16 ± 0.07 %ID/g
- excretion (urine and fecal material) ([2]; tumor volume >700 mm^3): 46.43 ± 13.26 %ID
- heart uptake ([2]; tumor volume >700 mm^3): 1.79 ± 0.87 %ID/g
- kidney uptake ([2]; tumor volume >700 mm^3): 1.45 ± 0.64 %ID/g
- large intestine uptake ([2]; tumor volume >700 mm^3): 2.14 ± 0.55 %ID/g
- liver uptake ([2]; tumor volume >700 mm^3): 3.02 ± 0.77 %ID/g
- lung uptake ([2]; tumor volume >700 mm^3): 3.34 ± 0.84 %ID/g
- muscle uptake ([2]; tumor volume >700 mm^3): 0.63 ± 0.24 %ID/g
- pancreas uptake ([2]; tumor volume >700 mm^3): 4.03 ± 3.24 %ID/g
- small intestine uptake ([2]; tumor volume >700 mm^3): 1.32 ± 0.78 %ID/g
- spleen uptake ([2]; tumor volume >700 mm^3): 1.80 ± 1.37 %ID/g
- stomach uptake ([2]; tumor volume >700 mm^3): 15.44 ± 3.98 %ID/g
- tumor uptake (perfusion) ([2]; tumor volume >700 mm^3): 3.19 ± 0.66 %ID/g
- average tumor uptake of perfusion tracer, orthotopic versus subcutaneous model ([2]; tumor volume 300–700 mm^3, p = 0.0001): 4.3 fold
- average tumor uptake of perfusion tracer, orthotopic versus subcutaneous model ([2]; tumor volume <300 mm^3, p = 0.0008): 4.1 fold
- average tumor uptake of perfusion tracer, orthotopic versus subcutaneous model ([2]; tumor volume >700 mm^3, p = 0.0001): 3.7 fold
- blood uptake [3, 4]: 0.88 ± 0.34 %ID/g
- bone uptake [3, 4]: 0.16 ± 0.06 %ID/g
- brain uptake [3, 4]: 0.03 ± 0.02 %ID/g
- excretion (urine and fecal material) [3, 4]: 85.78 ± 9.65 %ID
- heart uptake [3, 4]: 0.22 ± 0.11 %ID/g
- kidney uptake [3, 4]: 0.53 ± 0.19 %ID/g
- large intestine uptake [3, 4]: 0.43 ± 0.47 %ID/g
- liver uptake [3, 4]: 0.41 ± 0.19 %ID/g
- lung uptake [3, 4]: 0.49 ± 0.21 %ID/g
- muscle uptake [3, 4]: 0.11 ± 0.04 %ID/g
- pancreas uptake [3, 4]: 3.30 ± 2.30 %ID/g
- small intestine uptake [3, 4]: 0.61 ± 0.43 %ID/g
- spleen uptake [3, 4]: 0.87 ± 0.74 %ID/g
- stomach uptake [3, 4]: 2.41 ± 1.25 %ID/g
- tumor uptake (perfusion) [3, 4]: 0.68 ± 0.49 %ID/g
- blood uptake [3, 5]: 1.01 ± 0.06 %ID/g
- bone uptake [3, 5]: 0.34 ± 0.27 %ID/g
- brain uptake [3, 5]: 0.06 ± 0.04 %ID/g
- excretion (urine and fecal material) [3, 5]: 83.64 ± 9.63 %ID
- heart uptake [3, 5]: 0.40 ± 0.24 %ID/g
- kidney uptake [3, 5]: 0.66 ± 0.33 %ID/g
- large intestine uptake [3, 5]: 0.44 ± 0.35 %ID/g
- liver uptake [3, 5]: 0.67 ± 0.43 %ID/g
- lung uptake [3, 5]: 0.74 ± 0.27 %ID/g
- muscle uptake [3, 5]: 0.19 ± 0.11 %ID/g
- pancreas uptake [3, 5]: 2.26 ± 1.95 %ID/g
- small intestine uptake [3, 5]: 0.52 ± 0.38 %ID/g
- spleen uptake [3, 5]: 1.35 ± 1.21 %ID/g
- stomach uptake [3, 5]: 2.26 ± 1.06 %ID/g
- tumor uptake (perfusion) [3, 5]: 0.51 ± 0.31 %ID/g
- blood uptake [3, 6]: 2.61 ± 1.54 %ID/g
- bone uptake [3, 6]: 0.34 ± 0.31 %ID/g
- brain uptake [3, 6]: 0.06 ± 0.05 %ID/g
- excretion (urine and fecal material) [3, 6]: 82.76 ± 12.78 %ID
- heart uptake [3, 6]: 0.43 ± 0.38 %ID/g
- kidney uptake [3, 6]: 1.11 ± 0.92 %ID/g
- large intestine uptake [3, 6]: 0.53 ± 0.53 %ID/g
- liver uptake [3, 6]: 0.85 ± 0.77 %ID/g
- lung uptake [3, 6]: 1.24 ± 1.00 %ID/g
- muscle uptake [3, 6]: 0.21 ± 0.20 %ID/g
- pancreas uptake [3, 6]: 6.22 ± 6.53 %ID/g
- small intestine uptake [3, 6]: 0.53 ± 0.43 %ID/g
- spleen uptake [3, 6]: 0.43 ± 0.51 %ID/g
- stomach uptake [3, 6]: 3.03 ± 2.52 %ID/g
- tumor uptake (perfusion) [3, 6]: 0.86 ± 0.37 %ID/g
- tumor uptake (perfusion) ([3]; tumor volume >700 mm^3, 10 µCi i.v., listed as [99mTc]TcO4-): 0.86 ± 0.35 %ID/g
